Laboratory results published in PubChem BioAssay AID330 (DTP/NCI, 2004).
Toxic doses and inconclusive results are not listed.

Tested on: P388 leukemia ip, CD2F1 mice, survival T/C
Assay: NCI In Vivo Anticancer Drug Screen. Data for tumor model P388 Leukemia (intraperitoneal) in CD2F1 (CDF1) mice
Settings: endpoint: median survival time, higher = longer survival
Procedure, shortened: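 Mice carrying the transplanted tumor received test compound or vehicle. Survival was recorded in each group, and the value is the treated-group measurement divided by that of the vehicle-treated control group.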

[1] = dose: 50.0 mg/kg/injection, schedule: Q01DX009 (ip), vehicle: saline with Tween-80
[2] = dose: 100.0 mg/kg/injection, schedule: Q01DX009 (ip), vehicle: saline with Tween-80
[3] = dose: 200.0 mg/kg/injection, schedule: Q01DX009 (ip), vehicle: saline with Tween-80
[4] = dose: 12.5 mg/kg/injection, schedule: Q01DX009 (ip), vehicle: saline with Tween-80
[5] = dose: 12.5 mg/kg/injection, schedule: Q01DX005 (ip), vehicle: Klucel (hydroxypropylcellulose) (HPC)
[6] = dose: 25.0 mg/kg/injection, schedule: Q01DX005 (ip), vehicle: Klucel (hydroxypropylcellulose) (HPC)
[7] = dose: 50.0 mg/kg/injection, schedule: Q01DX005 (ip), vehicle: Klucel (hydroxypropylcellulose) (HPC)
[8] = dose: 50.0 mg/kg/injection, schedule: Q01DX005 (ip), vehicle: saline with Tween-80
[9] = dose: 100.0 mg/kg/injection, schedule: Q01DX005 (ip), vehicle: saline with Tween-80
[10] = dose: 100.0 mg/kg/injection, schedule: Q01DX001 (ip), vehicle: saline
[11] = dose: 200.0 mg/kg/injection, schedule: Q01DX001 (ip), vehicle: saline
[12] = dose: 400.0 mg/kg/injection, schedule: Q01DX001 (ip), vehicle: saline
[13] = dose: 200.0 mg/kg/injection, schedule: Q01DX005 (ip), vehicle: saline with Tween-80

For `C=C1CC23CC4C5C6(C)CC(O)CC57C(C2C(O)C1C(O)C37)N4C6` (stereo not drawn), the T/C (dose: 12.5 mg/kg/injection, schedule: Q01DX009 (ip), vehicle: Klucel (hydroxypropylcellulose) (HPC)) was 101 % of control, the T/C (dose: 25.0 mg/kg/injection, schedule: Q01DX009 (ip), vehicle: Klucel (hydroxypropylcellulose) (HPC)) was 106 % of control and the T/C (dose: 50.0 mg/kg/injection, schedule: Q01DX009 (ip), vehicle: Klucel (hydroxypropylcellulose) (HPC)) was 101 % of control.
With `CC(C)C(=O)N1CCCCCN1C(=O)C(C)C` the T/C (dose: 100.0 mg/kg/injection, schedule: Q01DX001 (ip), vehicle: suspension in saline) was 100 % of control, the T/C (dose: 200.0 mg/kg/injection, schedule: Q01DX001 (ip), vehicle: suspension in saline) was 95 % of control and the T/C (dose: 400.0 mg/kg/injection, schedule: Q01DX001 (ip), vehicle: suspension in saline) was 94 % of control.
With `CC(C)(C)C(CCC(=O)O)CC(=O)O` (stereo not drawn) the T/C [1] was 100 % of control, the T/C [2] was 95 % of control and the T/C (dose: 100.0 mg/kg/injection, schedule: Q04DX003 (ip), vehicle: saline) was 95 % of control. For the same compound, the T/C [3] was 100 % of control and the T/C (dose: 200.0 mg/kg/injection, schedule: Q04DX003 (ip), vehicle: saline) was 91 % of control.
`Cc1cccc(C)c1NC(=O)Nc1cccc(C#N)c1` was tested, and the T/C (dose: 15.0 mg/kg/injection, schedule: Q01DX005 (ip), vehicle: saline with Tween-80) was 91 % of control, the T/C (dose: 30.0 mg/kg/injection, schedule: Q01DX005 (ip), vehicle: saline with Tween-80) was 95 % of control and the T/C (dose: 60.0 mg/kg/injection, schedule: Q01DX005 (ip), vehicle: saline with Tween-80) was 91 % of control. The T/C (dose: 240.0 mg/kg/injection, schedule: Q01DX005 (ip), vehicle: saline with Tween-80) was 89 % of control.
In the case of `COc1cccc2c1C(=O)c1c(O)c3c(c(O)c1C2=O)CC(O)(C(=O)COc1ccccc1)CC3O` (stereo not drawn), the T/C (dose: 1.56 mg/kg/injection, schedule: Q01DX009 (ip), vehicle: other) is reported as 108 % of control, the T/C (dose: 3.13 mg/kg/injection, schedule: Q01DX009 (ip), vehicle: other) is reported as 106 % of control and the T/C (dose: 6.25 mg/kg/injection, schedule: Q01DX009 (ip), vehicle: other) is reported as 105 % of control. The T/C (dose: 12.5 mg/kg/injection, schedule: Q01DX009 (ip), vehicle: other) was 97 % of control and the T/C (dose: 25.0 mg/kg/injection, schedule: Q01DX009 (ip), vehicle: other) was 91 % of control.
With `O=c1cc(-c2ccc(OCc3ccccc3)c(-c3c(OCc4ccccc4)cc(OCc4ccccc4)c4c(=O)cc(-c5ccc(OCc6ccccc6)cc5)oc34)c2)oc2cc(OCc3ccccc3)cc(OCc3ccccc3)c12` the T/C (dose: 25.0 mg/kg/injection, schedule: Q01DX001 (ip), vehicle: saline with Tween-80) was 93 % of control, the T/C (dose: 50.0 mg/kg/injection, schedule: Q01DX001 (ip), vehicle: saline with Tween-80) was 89 % of control and the T/C (dose: 100.0 mg/kg/injection, schedule: Q01DX001 (ip), vehicle: saline with Tween-80) was 87 % of control. The T/C (dose: 200.0 mg/kg/injection, schedule: Q01DX001 (ip), vehicle: Klucel (hydroxypropylcellulose) (HPC)) was 89 % of control and the T/C (dose: 400.0 mg/kg/injection, schedule: Q01DX001 (ip), vehicle: Klucel (hydroxypropylcellulose) (HPC)) was 88 % of control.
`COc1cc2c(c(OC)c1OC)-c1c(cc3c(c1OC)OCO3)CC(C)C(C)(O)C2OC(=O)c1ccccc1` (stereo not drawn) was tested, and the T/C (dose: 11.25 mg/kg/injection, schedule: Q01DX009 (ip), vehicle: saline + alcohol) was 104 % of control, the T/C (dose: 22.5 mg/kg/injection, schedule: Q01DX009 (ip), vehicle: saline + alcohol) was 104 % of control and the T/C (dose: 45.0 mg/kg/injection, schedule: Q01DX009 (ip), vehicle: saline + alcohol) was 95 % of control. The T/C (dose: 90.0 mg/kg/injection, schedule: Q01DX009 (ip), vehicle: saline + alcohol) was 97 % of control.
With `CCOC(=O)N1Cc2cc3ccccc3nc2C1` the T/C (dose: 6.25 mg/kg/injection, schedule: Q01DX009 (ip), vehicle: saline with Tween-80) was 107 % of control, the T/C [4] was 101 % of control and the T/C (dose: 25.0 mg/kg/injection, schedule: Q01DX009 (ip), vehicle: saline with Tween-80) was 101 % of control. For the same compound, the T/C [1] was 108 % of control.
In the case of `O=C(O)C(=O)O.[U]`, the T/C [4] is reported as 100 % of control.
With `CC(C)CCCCC(O)C1C(=O)OCC1CO` (stereo not drawn) the T/C (dose: 7.25 mg/kg/injection, schedule: Q01DX005 (ip), vehicle: distilled water + alcohol) was 101 % of control, the T/C (dose: 14.5 mg/kg/injection, schedule: Q01DX005 (ip), vehicle: distilled water + alcohol) was 104 % of control and the T/C (dose: 29.0 mg/kg/injection, schedule: Q01DX005 (ip), vehicle: distilled water + alcohol) was 111 % of control. For the same compound, the T/C (dose: 58.0 mg/kg/injection, schedule: Q01DX005 (ip), vehicle: distilled water + alcohol) was 105 % of control.
With `Cc1cc2ncn(C(=O)Nc3ccccc3)c2cc1C` the T/C (dose: 100.0 mg/kg/injection, schedule: Q04DX003 (ip), vehicle: saline with Tween-80) was 100 % of control, the T/C (dose: 200.0 mg/kg/injection, schedule: Q04DX003 (ip), vehicle: saline with Tween-80) was 90 % of control and the T/C (dose: 400.0 mg/kg/injection, schedule: Q04DX003 (ip), vehicle: saline with Tween-80) was 90 % of control.
In the case of `COc1ccc2c(c1)C(c1cccc3ccccc13)OC2=O` (stereo not drawn), the T/C (dose: 6.25 mg/kg/injection, schedule: Q01DX005 (ip), vehicle: Klucel (hydroxypropylcellulose) (HPC)) is reported as 103 % of control, the T/C [5] is reported as 92 % of control and the T/C [6] is reported as 87 % of control. The T/C [7] was 90 % of control.
In the case of `ClCC(Br)CBr` (stereo not drawn), the T/C (dose: 37.5 mg/kg/injection, schedule: Q01DX009 (ip), vehicle: saline with Tween-80) is reported as 104 % of control, the T/C (dose: 37.5 mg/kg/injection, schedule: Q04DX003 (ip), vehicle: saline with Tween-80) is reported as 100 % of control and the T/C (dose: 50.0 mg/kg/injection, schedule: Q01DX009 (ip), vehicle: saline sonified) is reported as 105 % of control. The T/C (dose: 75.0 mg/kg/injection, schedule: Q04DX003 (ip), vehicle: saline with Tween-80) was 90 % of control, the T/C (dose: 150.0 mg/kg/injection, schedule: Q01DX009 (ip), vehicle: saline with Tween-80) was 104 % of control and the T/C (dose: 150.0 mg/kg/injection, schedule: Q04DX003 (ip), vehicle: saline with Tween-80) was 95 % of control.
`COc1c(OP2(=S)OCC(C)(C)CO2)cnn(C2CCCCC2)c1=O` was tested, and the T/C [8] was 89 % of control and the T/C [9] was 88 % of control.
For `c1ccc2c(c1)ccc1c2c[n+](CCCCCCCC[n+]2cc3c4ccccc4ccc3c3ccccc32)c2ccccc12`, the T/C (dose: 0.78 mg/kg/injection, schedule: Q01DX009 (ip), vehicle: distilled water + Tween-80) was 172 % of control, the T/C (dose: 1.56 mg/kg/injection, schedule: Q01DX009 (ip), vehicle: distilled water + Tween-80) was 163 % of control and the T/C (dose: 3.13 mg/kg/injection, schedule: Q01DX009 (ip), vehicle: distilled water + Tween-80) was 204 % of control. The T/C (dose: 6.25 mg/kg/injection, schedule: Q01DX009 (ip), vehicle: distilled water + Tween-80) was 209 % of control.
With `COc1ccc(CS(=O)(=O)c2cnc(N3CCN(C)CC3)nc2N)cc1OC` the T/C [10] was 101 % of control, the T/C [11] was 98 % of control and the T/C [12] was 98 % of control.
`C=C1CC2(CCCCC2C(C)(C)C)OC1=O` (stereo not drawn) was tested, and the T/C (dose: 100.0 mg/kg/injection, schedule: Q04DX002 (ip), vehicle: saline) was 100 % of control, the T/C (dose: 200.0 mg/kg/injection, schedule: Q04DX002 (ip), vehicle: saline) was 99 % of control and the T/C (dose: 400.0 mg/kg/injection, schedule: Q04DX002 (ip), vehicle: saline) was 99 % of control.
In the case of `Cc1nn(C(=O)c2c(-c3ccccc3)noc2C)c(C)c1N=Nc1cc(C(F)(F)F)cc(C(F)(F)F)c1`, the T/C [1] is reported as 87 % of control, the T/C [2] is reported as 87 % of control and the T/C [3] is reported as 97 % of control.
With `CC(NC(=O)OC(C)(C)C)C(=O)ON1C(=O)CCC1=O` (stereo not drawn) the T/C [8] was 108 % of control, the T/C [9] was 114 % of control and the T/C [13] was 104 % of control.
For `CN1C(=S)NC2C(O)C(O)C(CO)OC21` (stereo not drawn), the T/C [8] was 97 % of control, the T/C [9] was 99 % of control and the T/C [13] was 99 % of control.
In the case of `COc1ccc(/C=N/Nc2cc(C)nc3ccc(F)cc23)c2ccccc12`, the T/C [5] is reported as 97 % of control, the T/C [6] is reported as 98 % of control and the T/C [7] is reported as 99 % of control.
`COC(=O)c1ncn(CCCO)c1O` was tested, and the T/C [10] was 92 % of control, the T/C [11] was 100 % of control and the T/C [12] was 104 % of control.
